Assay results reported in the supplement of paper PMC12076712.

How the values were obtained:
Assay in all cases: pIC50, kinobeads binding competition
Conditions in all cases: cell material: Jurkat lysate
EPHB6 = molecular target: T1, EPHB6 (UniProt O15197)
T1 sequence (whole entry): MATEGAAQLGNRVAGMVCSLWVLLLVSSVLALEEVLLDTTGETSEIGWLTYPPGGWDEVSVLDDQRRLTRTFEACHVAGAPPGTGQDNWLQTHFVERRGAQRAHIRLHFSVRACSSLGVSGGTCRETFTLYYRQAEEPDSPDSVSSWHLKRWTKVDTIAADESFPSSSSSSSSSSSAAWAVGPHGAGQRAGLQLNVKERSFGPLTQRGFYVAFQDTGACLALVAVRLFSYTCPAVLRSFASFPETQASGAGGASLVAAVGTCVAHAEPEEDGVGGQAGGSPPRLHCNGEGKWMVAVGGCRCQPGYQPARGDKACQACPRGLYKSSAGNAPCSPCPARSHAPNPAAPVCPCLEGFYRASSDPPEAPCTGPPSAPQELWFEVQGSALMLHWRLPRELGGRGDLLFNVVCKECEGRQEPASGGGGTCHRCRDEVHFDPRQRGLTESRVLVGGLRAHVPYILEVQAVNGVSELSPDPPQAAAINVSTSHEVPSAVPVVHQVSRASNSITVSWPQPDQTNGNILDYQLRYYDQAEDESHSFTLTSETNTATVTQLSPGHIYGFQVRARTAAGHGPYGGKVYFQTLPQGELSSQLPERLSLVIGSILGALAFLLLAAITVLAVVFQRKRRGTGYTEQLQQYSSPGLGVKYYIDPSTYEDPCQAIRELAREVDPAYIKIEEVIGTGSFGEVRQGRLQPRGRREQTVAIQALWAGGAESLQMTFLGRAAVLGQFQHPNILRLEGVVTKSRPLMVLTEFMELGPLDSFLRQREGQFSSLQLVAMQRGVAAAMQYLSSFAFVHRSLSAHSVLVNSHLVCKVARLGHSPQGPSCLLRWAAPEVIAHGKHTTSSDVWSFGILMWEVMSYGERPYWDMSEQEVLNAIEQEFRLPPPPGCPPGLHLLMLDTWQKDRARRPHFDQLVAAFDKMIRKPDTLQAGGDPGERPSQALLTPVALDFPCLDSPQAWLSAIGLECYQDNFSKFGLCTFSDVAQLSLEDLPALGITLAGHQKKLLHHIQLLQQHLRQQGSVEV

UniProt O00444 = molecular target: T2, UniProt O00444
T2 sequence (whole entry): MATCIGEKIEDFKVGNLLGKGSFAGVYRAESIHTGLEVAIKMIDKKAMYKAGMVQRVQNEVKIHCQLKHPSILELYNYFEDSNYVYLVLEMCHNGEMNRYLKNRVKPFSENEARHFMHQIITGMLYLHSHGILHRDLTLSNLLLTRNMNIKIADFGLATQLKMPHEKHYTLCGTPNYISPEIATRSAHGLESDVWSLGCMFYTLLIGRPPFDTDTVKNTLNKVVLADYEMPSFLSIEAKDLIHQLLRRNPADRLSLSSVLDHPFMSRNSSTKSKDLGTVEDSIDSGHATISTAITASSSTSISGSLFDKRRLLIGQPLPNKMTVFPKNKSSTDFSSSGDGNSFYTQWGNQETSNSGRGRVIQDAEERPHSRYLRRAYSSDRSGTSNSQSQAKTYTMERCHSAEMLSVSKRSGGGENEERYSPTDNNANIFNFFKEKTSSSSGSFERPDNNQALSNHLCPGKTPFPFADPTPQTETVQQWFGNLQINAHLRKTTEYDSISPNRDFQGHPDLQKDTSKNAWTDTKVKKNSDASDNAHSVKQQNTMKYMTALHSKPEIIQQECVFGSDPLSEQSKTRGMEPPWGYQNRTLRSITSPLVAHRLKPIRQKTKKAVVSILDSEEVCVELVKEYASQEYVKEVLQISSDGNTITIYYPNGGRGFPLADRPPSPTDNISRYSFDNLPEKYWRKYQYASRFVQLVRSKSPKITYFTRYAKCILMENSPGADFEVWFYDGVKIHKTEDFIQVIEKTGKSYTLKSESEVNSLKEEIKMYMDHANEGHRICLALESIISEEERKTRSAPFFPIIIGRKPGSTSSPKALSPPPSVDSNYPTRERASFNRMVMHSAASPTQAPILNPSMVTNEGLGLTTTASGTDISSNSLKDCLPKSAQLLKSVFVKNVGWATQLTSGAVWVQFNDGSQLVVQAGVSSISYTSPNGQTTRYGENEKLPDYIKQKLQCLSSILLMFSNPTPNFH

UniProt Q13164 = molecular target: UniProt Q13164
UniProt Q9Y2U5 = molecular target: T3, UniProt Q9Y2U5
T3 sequence (whole entry): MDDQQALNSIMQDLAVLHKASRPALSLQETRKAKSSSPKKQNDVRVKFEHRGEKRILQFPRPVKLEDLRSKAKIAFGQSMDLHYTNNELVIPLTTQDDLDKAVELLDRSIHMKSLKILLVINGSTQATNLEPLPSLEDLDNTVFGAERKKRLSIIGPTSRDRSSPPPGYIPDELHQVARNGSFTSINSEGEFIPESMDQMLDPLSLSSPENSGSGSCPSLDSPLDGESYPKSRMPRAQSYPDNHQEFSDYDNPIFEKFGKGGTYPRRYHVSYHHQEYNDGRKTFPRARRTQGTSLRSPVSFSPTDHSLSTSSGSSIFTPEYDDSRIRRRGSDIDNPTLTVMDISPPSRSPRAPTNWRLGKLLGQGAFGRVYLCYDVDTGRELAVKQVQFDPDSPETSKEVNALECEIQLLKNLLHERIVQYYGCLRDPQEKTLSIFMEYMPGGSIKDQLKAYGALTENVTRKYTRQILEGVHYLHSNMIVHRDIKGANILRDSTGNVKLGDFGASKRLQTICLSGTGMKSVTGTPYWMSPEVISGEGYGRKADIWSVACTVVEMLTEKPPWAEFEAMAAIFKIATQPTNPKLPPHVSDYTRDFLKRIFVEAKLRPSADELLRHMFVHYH

TRRAP = TRRAP (UniProt Q9Y4A5)
AKT1 = AKT1 (UniProt P31749)
STK35 = STK35 (UniProt Q8TDR2)
PAK2 = PAK2 (UniProt Q13177)

STK35, sequence (Q8TDR2 whole entry): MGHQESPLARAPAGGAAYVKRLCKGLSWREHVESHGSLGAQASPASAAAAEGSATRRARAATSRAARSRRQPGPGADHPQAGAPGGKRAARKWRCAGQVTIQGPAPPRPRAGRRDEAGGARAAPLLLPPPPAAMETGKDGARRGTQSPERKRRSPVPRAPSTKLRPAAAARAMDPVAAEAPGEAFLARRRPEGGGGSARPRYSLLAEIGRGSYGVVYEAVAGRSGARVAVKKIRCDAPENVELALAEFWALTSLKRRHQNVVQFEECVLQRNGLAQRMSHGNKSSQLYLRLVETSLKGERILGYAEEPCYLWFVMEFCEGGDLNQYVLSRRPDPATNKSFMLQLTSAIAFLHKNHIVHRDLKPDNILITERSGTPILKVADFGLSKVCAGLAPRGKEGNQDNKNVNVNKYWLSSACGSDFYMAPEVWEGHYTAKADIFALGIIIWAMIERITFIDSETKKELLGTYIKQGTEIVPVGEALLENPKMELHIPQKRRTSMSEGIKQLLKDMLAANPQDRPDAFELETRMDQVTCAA
TRRAP, sequence (Q9Y4A5 whole entry): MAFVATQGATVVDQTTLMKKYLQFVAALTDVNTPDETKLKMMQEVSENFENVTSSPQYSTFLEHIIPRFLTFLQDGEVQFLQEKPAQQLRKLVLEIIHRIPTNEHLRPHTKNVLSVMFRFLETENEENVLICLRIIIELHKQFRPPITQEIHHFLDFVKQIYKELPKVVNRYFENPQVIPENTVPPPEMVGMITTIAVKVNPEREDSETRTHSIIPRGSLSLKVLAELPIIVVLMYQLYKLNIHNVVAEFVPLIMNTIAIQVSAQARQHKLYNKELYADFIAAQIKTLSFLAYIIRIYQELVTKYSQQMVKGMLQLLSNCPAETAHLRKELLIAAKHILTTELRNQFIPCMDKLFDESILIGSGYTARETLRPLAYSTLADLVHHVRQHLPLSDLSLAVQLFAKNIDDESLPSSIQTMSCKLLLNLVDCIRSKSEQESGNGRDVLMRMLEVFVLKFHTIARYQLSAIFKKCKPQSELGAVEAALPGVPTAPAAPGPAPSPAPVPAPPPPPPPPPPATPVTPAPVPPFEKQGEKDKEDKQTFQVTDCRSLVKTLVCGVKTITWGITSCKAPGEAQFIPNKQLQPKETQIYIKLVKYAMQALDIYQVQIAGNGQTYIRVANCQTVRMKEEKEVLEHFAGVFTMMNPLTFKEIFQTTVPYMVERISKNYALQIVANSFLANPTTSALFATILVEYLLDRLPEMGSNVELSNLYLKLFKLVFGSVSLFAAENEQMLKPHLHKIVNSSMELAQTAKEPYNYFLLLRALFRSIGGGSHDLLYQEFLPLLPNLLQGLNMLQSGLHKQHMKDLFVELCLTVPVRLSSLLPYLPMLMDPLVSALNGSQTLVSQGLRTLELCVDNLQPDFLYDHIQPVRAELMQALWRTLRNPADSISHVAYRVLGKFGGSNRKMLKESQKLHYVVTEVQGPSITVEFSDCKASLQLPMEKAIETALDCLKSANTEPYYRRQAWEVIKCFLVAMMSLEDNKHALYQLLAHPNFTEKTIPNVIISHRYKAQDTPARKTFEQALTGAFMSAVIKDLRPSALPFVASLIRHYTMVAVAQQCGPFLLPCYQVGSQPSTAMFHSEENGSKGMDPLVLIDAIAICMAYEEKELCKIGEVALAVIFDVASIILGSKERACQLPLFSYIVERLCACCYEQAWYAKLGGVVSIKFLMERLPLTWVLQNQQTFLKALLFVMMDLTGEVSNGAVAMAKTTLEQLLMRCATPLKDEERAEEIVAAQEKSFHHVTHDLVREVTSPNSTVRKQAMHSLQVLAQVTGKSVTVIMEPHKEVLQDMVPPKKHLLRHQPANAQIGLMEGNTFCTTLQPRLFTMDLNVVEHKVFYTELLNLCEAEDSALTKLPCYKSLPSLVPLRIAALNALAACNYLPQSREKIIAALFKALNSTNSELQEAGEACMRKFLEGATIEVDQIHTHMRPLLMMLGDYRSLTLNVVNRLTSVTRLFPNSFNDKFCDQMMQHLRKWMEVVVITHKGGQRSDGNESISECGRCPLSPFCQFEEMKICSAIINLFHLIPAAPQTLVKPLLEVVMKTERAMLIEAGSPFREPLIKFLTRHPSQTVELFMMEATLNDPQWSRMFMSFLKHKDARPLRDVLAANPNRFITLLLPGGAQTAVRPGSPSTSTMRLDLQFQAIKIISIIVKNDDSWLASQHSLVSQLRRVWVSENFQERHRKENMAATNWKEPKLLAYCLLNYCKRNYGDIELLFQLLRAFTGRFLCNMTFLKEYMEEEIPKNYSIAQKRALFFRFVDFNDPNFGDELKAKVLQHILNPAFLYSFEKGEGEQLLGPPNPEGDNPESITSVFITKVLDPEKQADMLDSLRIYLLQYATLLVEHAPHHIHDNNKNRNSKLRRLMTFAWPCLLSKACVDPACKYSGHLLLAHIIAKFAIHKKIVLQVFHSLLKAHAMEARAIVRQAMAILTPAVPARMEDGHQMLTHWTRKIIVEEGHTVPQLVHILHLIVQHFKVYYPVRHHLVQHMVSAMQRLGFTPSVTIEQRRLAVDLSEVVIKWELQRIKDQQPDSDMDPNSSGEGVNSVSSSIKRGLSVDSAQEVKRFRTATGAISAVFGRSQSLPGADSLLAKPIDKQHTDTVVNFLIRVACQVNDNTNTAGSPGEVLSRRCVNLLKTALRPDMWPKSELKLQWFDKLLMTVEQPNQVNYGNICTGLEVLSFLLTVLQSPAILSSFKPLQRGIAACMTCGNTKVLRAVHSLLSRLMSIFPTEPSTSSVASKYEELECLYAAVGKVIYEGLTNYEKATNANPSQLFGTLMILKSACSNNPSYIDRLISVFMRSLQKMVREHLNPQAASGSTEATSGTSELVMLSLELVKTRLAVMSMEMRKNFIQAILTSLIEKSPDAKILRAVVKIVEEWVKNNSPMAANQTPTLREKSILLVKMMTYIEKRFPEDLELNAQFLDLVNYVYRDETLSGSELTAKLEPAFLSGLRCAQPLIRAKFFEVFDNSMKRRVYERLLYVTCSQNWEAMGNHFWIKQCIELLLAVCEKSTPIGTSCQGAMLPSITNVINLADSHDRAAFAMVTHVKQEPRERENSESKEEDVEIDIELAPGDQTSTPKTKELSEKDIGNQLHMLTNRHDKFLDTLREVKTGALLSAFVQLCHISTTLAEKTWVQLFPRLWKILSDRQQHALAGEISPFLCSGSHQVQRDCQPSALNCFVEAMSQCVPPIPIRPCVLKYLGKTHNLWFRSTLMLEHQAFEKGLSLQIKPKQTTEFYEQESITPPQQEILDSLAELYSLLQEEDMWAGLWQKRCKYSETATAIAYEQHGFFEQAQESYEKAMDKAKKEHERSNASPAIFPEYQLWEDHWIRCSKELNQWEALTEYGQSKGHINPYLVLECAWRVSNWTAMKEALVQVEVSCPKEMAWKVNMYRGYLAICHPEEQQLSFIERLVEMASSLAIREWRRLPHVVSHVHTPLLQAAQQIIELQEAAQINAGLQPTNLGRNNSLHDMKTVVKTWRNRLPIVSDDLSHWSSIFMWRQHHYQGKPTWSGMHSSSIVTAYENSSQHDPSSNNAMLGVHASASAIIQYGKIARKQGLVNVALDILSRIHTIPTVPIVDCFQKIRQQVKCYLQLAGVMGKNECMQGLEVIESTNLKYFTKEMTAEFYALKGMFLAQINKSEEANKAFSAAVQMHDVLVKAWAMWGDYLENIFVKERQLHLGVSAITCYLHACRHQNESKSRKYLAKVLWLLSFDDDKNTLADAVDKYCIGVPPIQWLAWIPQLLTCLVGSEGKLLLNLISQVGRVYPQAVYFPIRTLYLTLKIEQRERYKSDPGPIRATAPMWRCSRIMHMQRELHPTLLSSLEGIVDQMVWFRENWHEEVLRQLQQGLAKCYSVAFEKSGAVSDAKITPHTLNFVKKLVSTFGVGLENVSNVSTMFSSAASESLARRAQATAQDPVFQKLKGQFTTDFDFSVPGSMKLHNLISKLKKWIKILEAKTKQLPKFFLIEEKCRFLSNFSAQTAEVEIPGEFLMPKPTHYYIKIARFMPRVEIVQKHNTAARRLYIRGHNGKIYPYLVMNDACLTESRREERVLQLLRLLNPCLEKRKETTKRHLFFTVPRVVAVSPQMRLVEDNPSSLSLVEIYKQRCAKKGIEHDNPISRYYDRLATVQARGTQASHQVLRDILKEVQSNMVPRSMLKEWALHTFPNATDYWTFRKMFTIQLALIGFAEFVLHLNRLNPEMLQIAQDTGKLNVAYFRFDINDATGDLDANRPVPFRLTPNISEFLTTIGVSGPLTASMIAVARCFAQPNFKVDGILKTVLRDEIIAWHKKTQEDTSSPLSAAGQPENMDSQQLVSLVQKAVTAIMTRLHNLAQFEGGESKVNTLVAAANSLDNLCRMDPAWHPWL
AKT1, sequence (P31749 whole entry): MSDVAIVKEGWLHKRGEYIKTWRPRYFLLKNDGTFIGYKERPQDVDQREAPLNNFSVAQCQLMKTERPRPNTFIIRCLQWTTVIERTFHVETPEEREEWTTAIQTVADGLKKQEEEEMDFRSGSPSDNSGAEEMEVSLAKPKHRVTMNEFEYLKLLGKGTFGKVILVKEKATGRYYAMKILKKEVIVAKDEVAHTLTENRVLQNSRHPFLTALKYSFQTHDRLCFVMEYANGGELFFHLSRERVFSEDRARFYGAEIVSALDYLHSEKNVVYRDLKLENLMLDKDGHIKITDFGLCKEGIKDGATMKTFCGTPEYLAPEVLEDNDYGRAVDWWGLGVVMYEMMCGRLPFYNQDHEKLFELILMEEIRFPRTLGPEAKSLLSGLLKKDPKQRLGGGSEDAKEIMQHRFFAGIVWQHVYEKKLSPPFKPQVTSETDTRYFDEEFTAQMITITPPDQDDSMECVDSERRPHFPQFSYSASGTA

pIC50 (EPHB6): < 4.52
pIC50 (UniProt O00444): < 4.52
pIC50 (UniProt Q13164): < 4.52
pIC50 (UniProt Q9Y2U5): < 4.52
pIC50 (TRRAP): < 4.52
pIC50 (AKT1): < 4.52
pIC50 (STK35): < 4.52
pIC50 (PAK2): < 4.52
Compound: CCc1cnn2c(NCc3ccc[n+]([O-])c3)cc(N3CCCC[C@H]3CCO)nc12 [dinaciclib]
